# In patent publication US20260325473A1, “N-Beta-Hydroxybutyryl-Amino Acids and Related Compositions and Methods” (The Board of Trustees of the Leland Stanford Junior …, priority 2023, published 2026):
# Key:
# [1] = system: brain lysate proteins; experiment: Competition of X-Phe photoprobe-labeled brain proteins, quantitative shotgun proteomics; format: binding, mouse; conditions: 100 μM photoprobe; 50-fold excess competitor
# Method: Shotgun proteomics of X-Phe photoprobe-labeled proteins. Brains from wild type C57BL/6J mice were harvested and homogenized using a bead blaster in PBS. Brain homogenate was centrifuged (15,000 rpm, 10 min) to yield the cytosolic supernatant and membrane pellet fractions. The cytosolic fraction was transferred to a new eppie and centrifuged again (15,000 rpm, 10 min). This process was repeated 4 times until no pellet was present after centrifugation. The membrane pellet was washed with 1 ml PBS and centrifuged (15,000 rpm, 10 min); this step was also repeated 4 times to remove any cytosolic protein contamination. After the centrifugation steps, the membrane pellet was re-suspended in PBS and sonicated. For competition experiments, brain lysate was normalized to 2 mg/ml in PBS and incubated with competitors at the indicated concentrations at room temperature for 30 minutes. 100 μM of the photoprobe was added and the reactions incubated on ice for 10 minutes protected from light. Reactions were then put under UV for 1 min on a UV Stratalinker. A biotin click reaction was performed by adding the following reagents to the indicated final concentrations: […], 1 mM CuSO4, 1 mM TCEP (freshly prepared), 30 μM Biotin-N3. Reactions were allowed to proceed for 1 hour at room temp, protected from light, and while rotating. The following prep was adapted from Niphakis et al. 2015. To each reaction, the following solvents were added in order, 4 ml cold methanol, 1 ml cold chloroform, 2 ml cold PBS. The mixture was vortexed well and centrifuged (4,600×g, 15 min, 4° C.). After centrifugation the organic and aqueous layers were removed without disruption of the protein disc. The protein disc was washed with a cold 1:1 mixture of methanol:chloroform 3 times. After the final wash, the protein disc was re-suspended in a 4:1 mixture of methanol:chloroform and sonicated. The insoluble protein was pelleted by centrifugation (4,600×g, 15 min, 4 C) and the pellet re-suspended in freshly prepared 500 μl of 6 M urea in PBS. 20 μl of 10% (w/v) SDS was added to the solution. The solution was then warmed in a 37 C water bath for 10 min to help dissolve poorly soluble protein. A streptavidin pulldown was the performed on the protein mixture. 250 μl of streptavidin beads were washed 3 times with 1 ml PBS. Protein samples were diluted with 5.5 ml of 0.25% SDS in PBS and incubated with streptavidin beads for 1.5 hr at room temperature. Following incubation, beads were washed 5 times each with 0.25% SDS in PBS, then PBS, then lastly with ultra-pure water Steptavidin beads were suspended in 150 μL resuspension buffer (1 M urea, 50 mM Tris-HCl, pH 8). Proteins were digested with 3 μg of trypsin for 4 hours. Digested peptides were reduced with 5 mM TCEP for 10 minutes. Cys residues were alkylated using 15 mM iodoacetimide (IAA) for 20 minutes. Finally, excess IAA was quenched with 10 mM DTT. Acidified digested peptides were desalted over C18 StageTips [PMID: 12585499]. Peptides were then eluted with 80% acetonitrile, 0.1% TFA and dried in a speedvac. Dried samples were reconstituted with 200 mM EPPS buffer, pH 8.0, and labelled with TMT reagents (Thermo Fisher Scientific). Following incubation at room temperature for 2 h, the reactions were quenched with hydroxylamine to a final concentration of 0.5% (v/v). […]
# [2] = Human ketone ester supplementation study, plasma metabolites; format: in vivo; conditions: 0.3 g/kg ketone ester, 60 min vs baseline
# Method: Targeted metabolomics. Targeted measurements were performed using an Agilent 6470 triple quadrupole LC-MS instrument. MS analysis was performed using AJS in negative mode. The AJS source parameters were set as follows: the dry gas temperature was set at 250° C. with a gas flow of 12 l/min and the nebulizer pressure at 25 psi; the sheath gas temperature was set to 300° C. with the sheath gas flow set at 12 l/min; and the capillary voltage was set to 3,500 V. Separation of polar metabolites was performed as described above in the ‘Untargeted measurements of metabolites by LC-MS’ section. Multiple reaction monitoring was performed for the indicated metabolites with the listed dwell times, fragmentor voltage, collision energies, cell accelerator voltages and polarities. Quantification of the endogenous metabolite concentrations were performed by generating a standard curve with known concentrations of each metabolite. Metabolite standards were analyzed alongside the plasma samples using the same targeted triple quadrupole LC/MS method. A calibration standard curve generated from the metabolite standard concentrations and total peak areas were used to calculate the concentrations of each endogenous metabolite. The dilution of the plasma during the sample preparation was also taken into account for the quantification.
# Human ketone ester supplementation study. Following screening, eligible subjects participated in a randomized, counter-balanced, double-blind, placebo-controlled crossover trial comparing BHB supplementation versus placebo, separated by a minimum of 2 days (ClinicalTrials.gov ID NCT04194450). Pre-menopausal women were tested in the follicular phase (days 3-9). Participants were asked to refrain from structured exercise and alcohol, limit physical activity, and follow a standardized diet (~50% carbohydrate, ~30% fat, ~20% protein) on the day before each trial. After refraining from medication use for 24 hours, participants reported to the Exercise, Metabolism and Inflammation Laboratory at the University of British Columbia-Okanagan in an overnight fasted state. Anthropometric measurements were obtained prior to insertion of an indwelling intravenous catheter into the antecubital vein for repeated blood sampling. Blood was collected into EDTA tubes (BD, 367863) and immediately centrifuged at 2000 rpm for 15 min and the top layer of plasma was aliquoted and frozen at −80 °C. After baseline (0) blood sample collection, the oral BHB supplement or placebo was consumed in liquid form (~30-65 mL). The BHB supplement (H.V.M.N®, USA) in the form of the ketone monoester (R)-3-hydroxybutyl (R)-3-hydroxybutyrate (AG®, TDeltaS, Oxford, UK) contained 0.4 g mL-1 BHB, natural flavoring, and <2% stevia leaf extract. The taste-matched placebo drink contained the same natural flavoring as the ketone supplement, stevia leaf extract, 5 mL of Bittrex stock (0.005 g of denatonium benzoate powder in 40 ml of water) and 1.5 mL of arrowroot stock (2 g of arrowroot powder in 50 ml of water) to match the bitter flavor and viscosity of the ketone monoester. Supplements were dispensed into opaque 80 ml bottles with volume calculated for 0.3 g BHB/kg body weight and labelled either A or B by a third-party researcher. Blinding was maintained until completion of data collection and analyses.
SMILES,competition of X-Phe photoprobe-labeled proteins [1] [%],number of brain proteins crosslinked by X-Phe photoprobe and >80% competed by Keto-Phe [1] [proteins],elevation of plasma keto amino acid after ketone ester drink [2] [fold]
"CC(O)CC(=O)N[C@@H](Cc1ccccc1)C(=O)O (stereo partly shown) [BHB-Phe, N-betahydroxybutyryl-phenylalanine]",> 80,32,3
"CC(O)CC(=O)N[C@H](C(=O)O)C(C)C (stereo partly shown) [BHB-Val, N-betahydroxybutyryl-valine]",–,–,2.5
